# Source: patent publication US8309552B2, “Immunomodulating heterocyclic compounds” (Medigene AG, priority 2003, dated 2012)
# Biological target: T1, CD80-CD28 interaction (Homo sapiens, UniProt P33681)
# T1 sequence (P33681 35-242 limits assumed): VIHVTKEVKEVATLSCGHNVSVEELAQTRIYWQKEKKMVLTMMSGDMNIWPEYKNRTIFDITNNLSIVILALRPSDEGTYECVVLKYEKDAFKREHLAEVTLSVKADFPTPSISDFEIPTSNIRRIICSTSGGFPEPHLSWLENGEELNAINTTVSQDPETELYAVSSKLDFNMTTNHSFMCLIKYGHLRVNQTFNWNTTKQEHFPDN
# Test: Homogenous Time Resolved Fluorescence (HTRF) assay, cell free
# Assay type: binding
# Details: cell free HTRF assay; concentration series 100 μM-1.7 nM; 4 hours at room temperature; read-out: Activity (EC50 in the HTRF assay)
# Summary of the method: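 Europium and APC labels were linked through antibodies to CD28 and CD80 fusion proteins. Compounds were tested at 100 μM-1.7 nM for 4 h at room temperature in 50 mM Tris-HCl, 150 mM NaCl pH7.8, 0.1% BSA. Emission read at 665 and 615 nm (excitation 340 nm); non-specific signal measured with C215 Fab in place of CD80; EC50 reported in bands.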
row,SMILES,EC50
1,C=CCNC(=O)c1ccc(-n2[nH]c3c(nnc4c(F)cccc43)c2=O)cc1 [Example 377],< 1000 nM
2,O=C(NCCNCc1ccccc1)c1ccc(-n2[nH]c3c(nnc4c(F)cccc43)c2=O)cc1 [Example 347],< 1000 nM
3,O=C(NCCSCc1c(F)cccc1Cl)c1ccc(-n2[nH]c3c(nnc4ccccc43)c2=O)cc1 [Example 254],> 10000 nM
4,CN(C)c1ccc(CNC(=O)c2ccc(-n3[nH]c4c(nnc5ccccc54)c3=O)cc2)cc1 [Example 237],< 1000 nM
5,C=CCN(C)CCCCNC(=O)c1ccc(-n2[nH]c3c(nnc4c(F)cccc43)c2=O)cc1 [Example 435],< 1000 nM
6,O=C(NCCc1c(Cl)cccc1Cl)c1ccc(-n2[nH]c3c(nnc4c(F)cccc43)c2=O)cc1 [Example 371],1000 to 10000 nM
7,CN1CCCC1CCNC(=O)c1ccc(-n2[nH]c3c(nnc4c(F)cccc43)c2=O)cc1 (centres unmarked) [Example 343],< 1000 nM
8,O=C(NCCCN1CCCC1)c1ccc(-n2[nH]c3c(nnc4cccc(F)c43)c2=O)cc1 [Example 393],< 1000 nM
9,CCCCNCCNC(=O)c1ccc(-n2[nH]c3c(nnc4c(F)cccc43)c2=O)cc1 [Example 344],< 1000 nM
10,O=C(NCCCN1CCCC1)c1ccc(-n2[nH]c3c(nnc4ccc(F)cc43)c2=O)cc1 [Example 331],< 1000 nM
11,CC1(C)CC(NC(=O)c2ccc(-n3[nH]c4c(nnc5c(F)cccc54)c3=O)cc2)CC(C)(C)N1 [Example 374],< 1000 nM
12,CNCCNC(=O)c1ccc(-n2[nH]c3c(nnc4c(F)cccc43)c2=O)cc1 [Example 356],< 1000 nM
13,O=C(NCCc1c(F)cccc1Cl)c1ccc(-n2[nH]c3c(nnc4c(F)cccc43)c2=O)cc1 [Example 369],1000 to 10000 nM
14,O=C(NC1CN2CCC1CC2)c1ccc(-n2[nH]c3c(nnc4ccccc43)c2=O)cc1 (centres unmarked) [Example 278],< 1000 nM
15,O=C(NCCSc1cc(C(F)(F)F)nc2ccccc12)Nc1ccc(-n2[nH]c3c(nnc4ccccc43)c2=O)cc1 [Example 227],> 10000 nM
16,CCN(CC)CCCNC(=O)c1ccc(-n2[nH]c3c(nnc4ccc(F)cc43)c2=O)cc1 [Example 330],< 1000 nM
17,CN1C(C)(C)CC(NC(=O)c2ccc(-n3[nH]c4c(nnc5c(F)ccc(F)c54)c3=O)cc2)CC1(C)C [Example 431],< 1000 nM

# Results, then the compound that gave them:
row,EC50,SMILES
1,1000 to 10000 nM,CCC(C)NC(=O)Nc1ccc(-n2[nH]c3c(nnc4ccccc43)c2=O)cc1 (centres unmarked) [Example 309]
2,< 1000 nM,NCCCCCCNC(=O)c1ccc(-n2[nH]c3c(nnc4ccccc43)c2=O)cc1 [Example 271]
3,1000 to 10000 nM,O=C(NCCc1cccs1)Nc1ccc(-n2[nH]c3c(nnc4ccccc43)c2=O)cc1 [Example 289]
4,> 10000 nM,O=C(Nc1ccc(-n2[nH]c3c(nnc4ccccc43)c2=O)cc1)NC1CCCC1OCc1ccccc1 (centres unmarked) [Example 292]
5,< 1000 nM,O=C(NCCC(F)(F)F)c1ccc(-n2[nH]c3c(nnc4ccccc43)c2=O)cc1 [Example 312]
6,> 10000 nM,O=C(NCc1ccc([N+](=O)[O-])cc1)Nc1ccc(-n2[nH]c3c(nnc4ccccc43)c2=O)cc1 [Example 296]
7,> 10000 nM,O=C(Nc1ccc(-n2[nH]c3c(nnc4ccccc43)c2=O)cc1)NC1CCCCCC1 [Example 299]
8,1000 to 10000 nM,O=C(NC1CONC1=O)c1ccc(-n2[nH]c3c(nnc4ccccc43)c2=O)cc1 (centres unmarked) [Example 267]
9,> 10000 nM,O=C(NCCc1cccs1)c1ccc(-n2[nH]c3c(nnc4ccccc43)c2=O)cc1 [Example 255]
10,> 10000 nM,O=C(NCCNc1ccc([N+](=O)[O-])cn1)Nc1ccc(-n2[nH]c3c(nnc4ccccc43)c2=O)cc1 [Example 302]
11,< 1000 nM,Cc1ccc2nnc3c(=O)n(-c4ccc(C(=O)NCCCNC5CCCCC5)cc4)[nH]c3c2c1 [Example 407]
12,< 1000 nM,CN(CCCCNC(=O)c1ccc(-n2[nH]c3c(nnc4c(F)cccc43)c2=O)cc1)C1CCCCC1 [Example 436]
13,< 1000 nM,C=CCNC(=O)c1ccc(-n2[nH]c3c(nnc4ccccc43)c2=O)cc1 [Example 246]
14,< 1000 nM,CC(C)(C)NC(=O)c1ccc(-n2[nH]c3c(nnc4ccccc43)c2=O)cc1 [Example 319]
15,< 1000 nM,C#CC1(NC(=O)c2ccc(-n3[nH]c4c(nnc5ccccc54)c3=O)cc2)CCCCC1 [Example 314]
16,1000 to 10000 nM,O=C(NC1C2CC3CC(C2)CC1C3)c1ccc(-n2[nH]c3c(nnc4ccccc43)c2=O)cc1 (centres unmarked) [Example 313]

# Same assay, conditions: cell-free HTRF, compound concentration series 100 μM-1.7 nM, 4 hours at room temperature; read-out: Activity (EC50 in the HTRF assay)
row,SMILES,EC50
1,O=C(NCCCc1ccccc1)c1ccc(-n2[nH]c3c(nnc4ccccc43)c2=O)cc1 [Example 41],1000 to 10000 nM
2,O=C(Nc1ccc(-n2[nH]c3c(nnc4ccccc43)c2=O)cc1)NC1CN2CCC1CC2 (centres unmarked) [Example 169],< 1000 nM
3,CC(C)(C)OC(=O)NCCCCCCNC(=O)c1ccc(-n2[nH]c3c(nnc4ccccc43)c2=O)cc1 [Example 117],1000 to 10000 nM
4,O=C(NCCNc1cccc2ccccc12)c1ccc(-n2[nH]c3c(nnc4ccccc43)c2=O)cc1 [Example 65],1000 to 10000 nM
5,O=C(NCCN1CCN(Cc2ccccc2)CC1)c1ccc(-n2[nH]c3c(nnc4ccccc43)c2=O)cc1 [Example 37],< 1000 nM

# The next lines start with the values.
row,EC50,SMILES
1,1000 to 10000 nM,O=C(Nc1ccc(-n2[nH]c3c(nnc4ccccc43)c2=O)cc1)NC1CCOC1=O (centres unmarked) [Example 153]
2,1000 to 10000 nM,O=C(NCCCCCNC(=O)OCc1ccccc1)Nc1ccc(-n2[nH]c3c(nnc4ccccc43)c2=O)cc1 [Example 219]
3,1000 to 10000 nM,O=C(Nc1ccc(-n2[nH]c3c(nnc4ccccc43)c2=O)cc1)NC1CCCN(Cc2ccccc2)C1 (centres unmarked) [Example 197]
4,> 10000 nM,O=C(Nc1ccc(-n2[nH]c3c(nnc4ccccc43)c2=O)cc1)NC1CCCCC1OCc1ccccc1 (centres unmarked) [Example 212]
5,< 1000 nM,O=C(NCCCCCO)c1ccc(-n2[nH]c3c(nnc4ccccc43)c2=O)cc1 [Example 112]
6,1000 to 10000 nM,O=C(NCCc1ccccc1)Nc1ccc(-n2[nH]c3c(nnc4ccccc43)c2=O)cc1 [Example 147]
7,> 10000 nM,O=C(Nc1ccc(-n2[nH]c3c(nnc4ccccc43)c2=O)cc1)NC1CCCCC1 [Example 127]
8,1000 to 10000 nM,CCC(CC)NC(=O)c1ccc(-n2[nH]c3c(nnc4ccccc43)c2=O)cc1 [Example 72]
9,< 1000 nM,CCN1CCCC1CNC(=O)c1ccc(-n2[nH]c3c(nnc4ccccc43)c2=O)cc1 (centres unmarked) [Example 69]
10,< 1000 nM,CNCCCNC(=O)c1ccc(-n2[nH]c3c(nnc4ccccc43)c2=O)cc1 [Example 52]
11,< 1000 nM,CN1CCC(NC(=O)Nc2ccc(-n3[nH]c4c(nnc5ccccc54)c3=O)cc2)CC1 [Example 183]
12,< 1000 nM,CNCCNC(=O)Nc1ccc(-n2[nH]c3c(nnc4ccccc43)c2=O)cc1 [Example 142]
13,1000 to 10000 nM,COCCNC(=O)c1ccc(-n2[nH]c3c(nnc4ccccc43)c2=O)cc1 [Example 9a]
14,1000 to 10000 nM,COC(=O)C(NC(=O)c1ccc(-n2[nH]c3c(nnc4ccccc43)c2=O)cc1)C(C)C (centres unmarked) [Example 93]
15,1000 to 10000 nM,CCOC(=O)N1CCC(NC(=O)c2ccc(-n3[nH]c4c(nnc5ccccc54)c3=O)cc2)CC1 [Example 104]
16,> 10000 nM,CC1C(NC(=O)c2ccc(-n3[nH]c4c(nnc5ccccc54)c3=O)cc2)CC2CC1C2(C)C (centres unmarked) [Example 122]
17,1000 to 10000 nM,CCC(C)NC(=O)Nc1ccc(-n2[nH]c3c(nnc4ccccc43)c2=O)cc1 (centres unmarked) [Example 167]
18,1000 to 10000 nM,O=C(NCCc1cnc[nH]1)c1ccc(-n2[nH]c3c(nnc4ccccc43)c2=O)cc1 [Example 35]
19,> 10000 nM,CCCCOCCCNC(=O)Nc1ccc(-n2[nH]c3c(nnc4ccccc43)c2=O)cc1 [Example 160]
20,> 10000 nM,CC(C)(C)OC(=O)NCCCCNC(=O)Nc1ccc(-n2[nH]c3c(nnc4ccccc43)c2=O)cc1 [Example 220]
21,< 1000 nM,O=C(NCCCn1ccnc1)c1ccc(-n2[nH]c3c(nnc4ccccc43)c2=O)cc1 [Example 23]
22,1000 to 10000 nM,O=C(NCCc1ccccn1)Nc1ccc(-n2[nH]c3c(nnc4ccccc43)c2=O)cc1 [Example 196]
23,> 10000 nM,O=C(Nc1ccc(-n2[nH]c3c(nnc4ccccc43)c2=O)cc1)NC1CCCC1OCc1ccccc1 (centres unmarked) [Example 211]

# Same assay, conditions: cell-free HTRF, concentration series 100 μM-1.7 nM, 4 hours at room temperature; read-out: Activity (EC50 in the HTRF assay)
row,SMILES,EC50
1,CC(F)CCNC(=O)c1ccc(-n2[nH]c3c(nnc4c(F)cccc43)c2=O)cc1 (centres unmarked) [Example 493],< 1000 nM
2,O=C(c1ccc(-n2[nH]c3c(nnc4c(F)cccc43)c2=O)cc1)N1CCCNCC1 [Example 490],< 1000 nM
3,CC1CCCCN1CCCCNC(=O)c1ccc(-n2[nH]c3c(nnc4c(F)cccc43)c2=O)cc1 (centres unmarked) [Example 454],< 1000 nM
4,CCCN(CCCCNC(=O)c1ccc(-n2[nH]c3c(nnc4c(F)cccc43)c2=O)cc1)CC1CC1 [Example 468],< 1000 nM
5,CC(C)CN(CCCCNC(=O)c1ccc(-n2[nH]c3c(nnc4c(F)cccc43)c2=O)cc1)CC(C)C [Example 476],< 1000 nM
6,CC1CCN(C(=O)c2ccc(-n3[nH]c4c(nnc5c(F)cccc54)c3=O)cc2)CC1 [Example 465],< 1000 nM
7,CN(C)CCCNC(=O)c1ccc(-n2[nH]c3c(nnc4ccc(Cl)cc43)c2=O)cc1 [Example 446],< 1000 nM
8,O=C(NC1CCN(CCCCc2ccccc2)CC1)c1ccc(-n2[nH]c3c(nnc4c(F)cccc43)c2=O)cc1 [Example 457],< 1000 nM

# Continued, values first:
row,EC50,SMILES
1,< 1000 nM,O=C(NC1CCNC1)c1ccc(-n2[nH]c3c(nnc4c(F)cccc43)c2=O)cc1 (centres unmarked) [Example 488]
2,< 1000 nM,O=C(c1ccc(-n2[nH]c3c(nnc4c(F)cccc43)c2=O)cc1)N1CCCCCC1 [Example 463]
